The results in this text go back to US8404665B2, “In vivo use of glutathione S-transferase activated nitric oxide donors” (University of Utah Research Foundation, priority 2002, dated 2013).

One series deals with T1, hGSTP1-1 (Homo sapiens, UniProt P09211).
T1 construct: purchased Panvera (Madison, Wis.)
The experiment in a line: GST-catalysed GSH conjugation of JS-K and NO release. Type of series: biochemical. As for the experimental part:
(§1) Determination of Specific Activity of Human GSTs Toward JS-K. Purified preparations of recombinant hGSTA1-1, hGSTM1-1 and hGSTP1-1 were obtained from Panvera (Madison, Wis.). The activity of human GST toward CDNB was determined, as described by Habig et al. (Habig, W. H. et al. (1974) J. Biol. Chem. 249: 7130-7139), prior to activity measurements with JS-K to ensure that the enzyme preparations were catalytically active. For activity measurement toward JS-K, the reaction mixture in a final volume of 1 ml contained 100 mM potassium phosphate buffer (pH 6.5), 1 mM GSH, 0.045 mM JS-K, and an appropriate amount of human GST isoenzyme protein. The reaction was started by the addition of JS-K, and the rate of reaction was monitored by measuring decrease in absorbance of JS-K at 298 nm due to its utilization during reaction with GSH. The specific activity toward JS-K was calculated using an extinction coefficient of 18 mM^−1 cm^−1 at 298 nm.
(§2) Measurement of NO Release. Chemiluminescence detection and quantification of NO evolving from the reactions of JS-K were conducted using an NO-specific Thermal Energy Analyzer (Model 502A, Thermedics, Analytical Instrument Division, Waltham, Mass.) essentially as previously described (Keefer, L. K. et al. (1996) Methods Enzymol. 268: 281-293). Briefly, pH 7.4 phosphate buffer containing 1 mM GSH was sparged with inert gas until a steady detector response was established. Where indicated, GSTs were added to a final concentration of 1.67 ug of enzyme/ml. The NO release profile was followed at 37° C. for 45 min after injecting JS-K at a final concentration of 133 nM to start the reaction. The resulting curve was integrated to quantify the amount of NO released/mole of compound.

Another series has as its target T2, hGSTM1-1 (Homo sapiens, UniProt P09488).
T2 construct: purchased Panvera (Madison, Wis.)
T2 sequence (P09488 2-218): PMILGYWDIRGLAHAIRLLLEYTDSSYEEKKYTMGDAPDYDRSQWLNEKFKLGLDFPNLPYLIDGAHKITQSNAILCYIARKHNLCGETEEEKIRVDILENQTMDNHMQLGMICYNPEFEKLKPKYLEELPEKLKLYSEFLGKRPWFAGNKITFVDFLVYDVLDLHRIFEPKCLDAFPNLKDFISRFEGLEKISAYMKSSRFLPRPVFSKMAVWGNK
The series is described as above. The series is classed as biochemical. As for the experimental part: as §1, §2

Series [1] has as its system bacterial, viral, fungal or parasitic infection. The experiment in a line: Treatment of bacterial, viral, fungal or parasitic infection in an individual. Type of series: in vivo. To be noted: therapeutically effective amount. As for the experimental part:
An individual with a bacterial, viral, fungal or parasitic infection is administered a therapeutically effective amount of JS-K to treat such infection.

For series [2] the following is noted: mouse, in vivo, iv.
The subject of another series is PPC-1 cells. The experiment in a line: PPC-1 prostate cancer cell growth in vitro. Type of series: cell-based. As for the experimental part: Cell Lines and Culture Conditions. HL-60, DLD1, and U937 cells were obtained from ATCC (Rockville, Md.). Meth A cells were from Dr. Wolfram Samlowski (University of Utah, Salt Lake City, Utah). The PPC-1 cell line was provided by Dr. Graeme Bolger (University of Alabama, Birmingham, Ala.). For the cell growth and apoptosis experiments, cells were cultured at a density of 150,000 cells/ml in RPMI-1640 with 10% fetal bovine serum at 37° C. in a 5% CO2 humidified atmosphere. Agents were added at the indicated concentrations 24 h after culture initiation. At the indicated time intervals, cells were harvested and washed twice in phosphate buffered saline (PBS) prior to processing for analysis of growth, differentiation, and apoptosis.
Cell Growth, Differentiation and Apoptosis Assays. The number of viable cells was determined using the MTT assay according to the manufacturer's protocol (Promega, Madison, Wis.) or using a Coulter counter. […] The assay is useful in calorimetric quantitation of cell viability and proliferation. In contrast, cell differentiation was evaluated using Wright and Non-Specific Esterase (NSE) staining of cells collected on microscope slides by cytospin as previously described (Magrinat, G. et al. (1992) Blood 80: 1880-1884). […]

The structures appear in SMILES notation.

T1 sequence (P09211 2-210 limits assumed): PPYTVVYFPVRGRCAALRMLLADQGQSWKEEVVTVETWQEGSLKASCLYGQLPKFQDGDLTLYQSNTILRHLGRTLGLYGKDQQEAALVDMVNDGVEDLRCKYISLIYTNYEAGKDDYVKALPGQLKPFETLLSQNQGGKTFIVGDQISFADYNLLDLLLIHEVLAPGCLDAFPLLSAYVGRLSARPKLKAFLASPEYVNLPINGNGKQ

Consider `CCOC(=O)N1CCN(/[N+]([O-])=N/Oc2ccc([N+](=O)[O-])cc2[N+](=O)[O-])CC1` [JS-K, O^2-(2,4-dinitrophenyl) 1-[(4-ethoxycarbonyl)piperazin-1-yl]diazen-1-ium-1,2-diolate], for which the “catalysis of NO release from JS-K with GSH” value at hGSTP1-1 (hGSTP1-1) is “only weakly”. Further, the “activity for GSH conjugation of JS-K” value on hGSTP1-1 (recombinant hGSTP1-1) was “much less active than hGSTA1-1 or hGSTM1-1”. In addition, the “effect of JS-K exposure on enzyme's ability to catalyze CDNB's conjugation with GSH” value on hGSTP1-1 (up to 80 uM JS-K) was “unfettered ability”. The “catalysis of JS-K conjugation” value at hGSTM1-1 is “much superior to hGSTP1-1”. Moreover, the effect on infection entry in series [1] is on record as “causes elimination of such infection”. Besides, the “peak blood concentration the dose would achieve” value in series [2] was “approximately 68 μM”. Moreover, in the series on PPC-1 cells (1, 2, 3, 4 and 5 μM, 3 days), the cell growth inhibition entry is “potent inhibitor of prostate cancer growth”. Further, the “IC50 relative to leukemia lines” value with PPC-1 cells (PPC-1) was “an order of magnitude greater than those for the two leukemia lines”.
